Measurements as given in patent US5965582A, “N-benzylindole and benzopyrazole derivatives with anti-asthmatic, anti-allergic, anti-inflammatory and immunemodulating effect” (ASTA Medica Aktiengesellschaft, priority 1994, dated 1999).
Counter-ions that a name gives are not always drawn.

Experiments:
[1] = test system: eosinophilia in the lavage; assay: Late phase eosinophilia model in sensitised guinea pigs (bronchoalveolar lavage); assay type: in vivo, guinea pigs (Pirbright White)
Description: The in vitro investigations with D-22557 and D-22558 were continued in vivo (late phase eosinophilia model) in sensitised guinea pigs
Male guinea pigs (Pirbright White, 200-250 g. Charles River Wiga, Sulfeld) were actively sensitised using a s.c. injection cf ovalbumin (10μg+100 mg aluminium hydroxide) and boosted 2 weeks later. One week after the booster injection the animals were exposed for 30 seconds to an aerosol made from 0.5% ovalbumin solution. 24 hours later brochoalveolar lavage (BAL) was carried out with 2×5 ml physiol. salt solution in animals sacrificed using an overdose of pentobarbital sodium and desanguinated. The lavage fluid was pooled, centrifuged for 10 minutes at 400×g and the cell pellet resuspended in 1 ml physiological salt solution. The eosinophiles were counted in a Neubauer chamber after staining by using a Becton Dickinson eosinophile test kit. Percentage Inhibition of the eosinophilia in the lavage was calculated in percent by comparing the eosinophile count of the groups treated with substance with the eosinolphile count of normal (unchallenged) and challenged control groups not treated with the substance. Each group numbered 10 animals. Test substances were either given prophylactically 2 hours before allergen challenge (-2 h) or therapeutically 4 hours after challenge (+4 h). When the therapeutic application was investigated, the animals (all groups) received azelastin (10 μg/kg po) 2 hours before allergen challenge to avoid deaths arising due to the onset of early phase bronchoconstriction.

[2] = test system: allergically-induced histamine release from mast cells of the peritoneal and pleura cavities; assay: Inhibition of allergically-induced histamine release in-vitro (CHIR); assay type: cell-based, Sprague-Dawley rats; conditions: for IC50: allergically-induced histamine release, rat mast cells, in vitro; for CHIR % inhibition: with 10 [μmol/l] (footnote: concentration unit 10,000 nmol/l)
Description: Inhibition of allergically-induced histamine release in-vitro (CHIR)
Meth. […] Sprague-Dawley rats were sensitised against egg albumin (EA) by subcutaneous injection of 30 mg EA with killed Bordetella pertussis bacteria as adjuvant. Four weeks later, the mast cells of the peritoneal and pleura cavities were isolated from these animals. The cells were washed, resuspended in tris gel CM (the composition of tris gel CM buffer is as follows:
the rest is water, the pH value of the solution is 7.6) buffer and pre-incubated with the test substances for 15 minutes at 37° C. The cells were then stimulated at 37° C. by adding the antigen EA to release histamine.

[3] = test system: IL-4 release from murine T-helper cells (D10.G4); assay: Inhibition of anti-CD3-induced release of interleucin (IL)-4 in vitro (CIL4TC); assay type: cell-based; conditions: anti-CD3-induced IL-4 release; for IC50: 16 hours; for CIL4TC % inhibition: with 10 000 nmol/l
Description: (§1) Inhibition of anti-CD3-induced release of interleucin (IL)-4 (CIL4TC) and IL-5-release (CIL5TC) in vitro
(§2) Murine T-helper cells (D10.G4) were used as IL-4/IL-5-producing cells. These cells were pre-incubated with the test substances for 30 minutes at 37° C. The cells were then stimulated at 37° C. to produce interleucins by adding a monoclonal antibody against the T-cell receptor domain CD3 (anti-CD3). After 16 hours, the cells were centrifuged off and the released interleucins were quantified in the cell supernatant with ELISAs for murine IL-4 and IL-5.

[4] = test system: IL-5 release from murine T-helper cells (D10.G4); assay: Inhibition of anti-CD3-induced IL-5-release in vitro (CIL5TC); assay type: cell-based; conditions: 16 hours
Description: as §1, §2

[5] = 5 mg/kg ip, -2 h (before allergen challenge)

| SMILES | IC50 ([2]; Mast cell) [µM] | IC50 ([3]; Mus musculus) [µM] | IC50 ([4]; Mus musculus) [µM] | CIL4TC % inhibition [3] [%] | other results |
| --- | --- | --- | --- | --- | --- |
| Fc1ccc(Cn2cc(CCNc3cccnc3)c3ccccc32)cc1.O=C(O)/C=C\C(=O)O [D-22557, N-(pyridine-3-yl)-2-[1-(4-fluorobenzyl)indole-3-yl]ethylamine maleate] | – | – | – | – | % Inhibition of the eosinophilia in the lavage ([1]; 0.5 mg/kg ip, -2 h (before allergen challenge)): 59%; % Inhibition of the eosinophilia in the lavage ([1]; 1 mg/kg ip, -2 h (before allergen challenge)): 42%; % Inhibition of the eosinophilia in the lavage [1, 5]: 50% |
| O=C(Cc1cn(Cc2ccc(F)cc2)c2ccccc12)Nc1ccncc1 [D-22558, N-(4-pyridyl)-[1-(4-fluorobenzyl)indole-3-yl]acetamide] | 0.016 | 7.97 | 1.52 | – | % Inhibition of the eosinophilia in the lavage [1, 5]: 41%; % Inhibition of the eosinophilia in the lavage ([1]; 10 mg/kg ip, +4 h (after challenge), animals received azelastin 10 μg/kg po 2 hours before challenge): 59%; % Inhibition of the eosinophilia in the lavage ([1]; 10 mg/kg po, -2 h (before allergen challenge)): 23%; % Inhibition of the eosinophilia in the lavage ([1]; 30 mg/kg po, -2 h (before allergen challenge)): 35% |
| CCn1cc(CC(=O)Nc2ccncc2)c2ccccc21 [D-22693, N-(4-pyridyl-yl)-2-(1-ethylindole-3-yl)acetamide] | 0.4 | – | 2.7 | 48 | – |
| Fc1ccc(Cn2cc(CCCNc3ccncc3)c3ccccc32)cc1 [D-22698, N-(4-pyridyl-yl)-3-[1-(4-fluorobenzyl)indole-3-yl]propylamine] | – | – | 7.77 | 38 | – |
| CCOC(=O)Nc1ccc(OC)nc1NCCCc1cn(Cc2ccc(F)cc2)c2ccccc12 [D-22993] | – | – | – | – | IC50 [2]: 0.54 µM; IC50 [3]: 8.97 µM; IC50 [4]: 6.94 µM |

Continued by falling IC50 ([4]; Mus musculus), values first:

| IC50 ([2]; Mast cell) [µM] | IC50 ([3]; Mus musculus) [µM] | IC50 ([4]; Mus musculus) [µM] | SMILES | CIL4TC % inhibition [3] [%] | other results |
| --- | --- | --- | --- | --- | --- |
| 0.2 | – | 7.31 | Fc1ccc(Cn2cc(CCCNc3cccnc3)c3ccccc32)cc1 [D-22686, N-(3-pyridyl-yl)-3-3[1-(4-fluorobenzyl)indole-3-yl]propylamine] | 41 | – |
| – | 8.58 | 6.89 | c1ccc(Cn2cc(CCNc3ccncc3)c3ccccc32)cc1 [D-22685, N-(4-pyridyl-yl)-2-(1-benzylindole-3-yl)ethylamine maleate] | – | CHIR % inhibition [2]: 33% |
| 3.4 | – | 6.6 | CCOC(=O)Nc1ccc(N2CCc3c([nH]c4ccccc34)C2)nc1N [D-22559, N-(6-amino-5-ethoxycarbonylamino-(-2-pyridyl))-1,2,3,4-tetrahydro-β-carboline] | 51 | – |
| 0.68 | 9.73 | 6.24 | CCOC(=O)Nc1ccc(OC)nc1NCCc1cn(Cc2ccccc2)c2ccccc12 [D-22992, N-(3-ethoxycarbonylamino-6-methoxy-(2-pyridyl))-2-(1-benzylindole-3-yl)ethylamine] | – | – |
| – | 5.68 | 3.21 | Fc1ccc(Cn2cc(CCNc3ccncc3)c3ccccc32)cc1 [D-22561, N-(4-pyridyl-yl)-2-[1-(4-fluorobenzyl)indole-3-yl]ethylamine maleate] | – | CHIR % inhibition [2]: 15% |
| – | 7.29 | 2.88 | Cn1cc(CCCNc2ccncc2)c2ccccc21 [D-22697, N-(4-pyridyl-yl)-3-(1-methylindole-3-yl)propylamine] | – | – |
